Source: PubChem BioAssay (NCI)
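Briefly, cells in 96-well plates were exposed to five compound concentrations for 48 h, and endpoints were estimated by linear interpolation. At the GI50, growth is halved. TGI: total growth inhibition.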

How the values were obtained:
Experiment in all cases: DTP human tumour cell line panel, 48 h; in the data active = GI50 below about 0.43 µM; inactive = the rest
786-0 renal = test system: 786-0 renal
A498 renal = test system: A498 renal
A549 NSCLC = test system: A549 NSCLC
ACHN renal = test system: ACHN renal
BT-549 breast = test system: BT-549 breast
CAKI-1 renal = test system: CAKI-1 renal
CCRF-CEM leukemia = test system: CCRF-CEM leukemia
COLO 205 colon = test system: COLO 205 colon
DU-145 prostate = test system: DU-145 prostate
HCC-2998 colon = test system: HCC-2998 colon
HCT-116 colon = test system: HCT-116 colon
HCT-15 colon = test system: HCT-15 colon
HL-60(TB) leukemia = test system: HL-60(TB) leukemia
HOP-62 NSCLC = test system: HOP-62 NSCLC
HOP-92 NSCLC = test system: HOP-92 NSCLC
HS 578T breast = test system: HS 578T breast
HT29 colon = test system: HT29 colon
IGROV1 ovarian = test system: IGROV1 ovarian
K-562 leukemia = test system: K-562 leukemia
KM12 colon = test system: KM12 colon
LOX IMVI melanoma = test system: LOX IMVI melanoma
M14 melanoma = test system: M14 melanoma
MALME-3M melanoma = test system: MALME-3M melanoma
MCF7 breast = test system: MCF7 breast
MDA-MB-231 breast = test system: MDA-MB-231 breast
MDA-MB-435 = test system: MDA-MB-435
MOLT-4 leukemia = test system: MOLT-4 leukemia
NCI-H226 lung = test system: NCI-H226 lung
NCI-H23 lung = test system: NCI-H23 lung
NCI-H460 lung = test system: NCI-H460 lung
NCI-H522 lung = test system: NCI-H522 lung
NCI/ADR-RES ovarian = test system: NCI/ADR-RES ovarian
OVCAR-3 ovarian = test system: OVCAR-3 ovarian
OVCAR-4 ovarian = test system: OVCAR-4 ovarian
OVCAR-5 ovarian = test system: OVCAR-5 ovarian
OVCAR-8 ovarian = test system: OVCAR-8 ovarian
PC-3 prostate = test system: PC-3 prostate
RPMI-8226 leukemia = test system: RPMI-8226 leukemia
RXF 393 renal = test system: RXF 393 renal
SF-268 CNS = test system: SF-268 CNS
SF-295 CNS = test system: SF-295 CNS
SF-539 CNS = test system: SF-539 CNS
SK-MEL-2 melanoma = test system: SK-MEL-2 melanoma
SK-MEL-28 melanoma = test system: SK-MEL-28 melanoma
SK-MEL-5 melanoma = test system: SK-MEL-5 melanoma
SK-OV-3 ovarian = test system: SK-OV-3 ovarian
SN12C renal = test system: SN12C renal
SNB-19 CNS = test system: SNB-19 CNS
SNB-75 CNS = test system: SNB-75 CNS
SR leukemia = test system: SR leukemia
SW-620 colon = test system: SW-620 colon
T-47D breast = test system: T-47D breast
TK-10 renal = test system: TK-10 renal
U251 CNS = test system: U251 CNS
UACC-257 melanoma = test system: UACC-257 melanoma
UACC-62 melanoma = test system: UACC-62 melanoma
UO-31 renal = test system: UO-31 renal

C[C@@H](Nc1cc(F)cc(F)c1)c1cc(C(=O)N(C)C)cc2c(=O)cc(N3CCOCC3)oc12
20.9 µM: TGI (UACC-62 melanoma)
50.3 µM: TGI (SF-539 CNS)
6.94 µM: TGI (T-47D breast)
13 µM: TGI (HOP-92 NSCLC)
52.6 µM: TGI (MOLT-4 leukemia)
> 65.3 µM: TGI (SK-OV-3 ovarian)
> 100 µM: TGI (786-0 renal) | TGI (A549 NSCLC) | TGI (ACHN renal) | TGI (CAKI-1 renal) | TGI (CCRF-CEM leukemia) | TGI (DU-145 prostate) | TGI (HCC-2998 colon) | TGI (HCT-116 colon) | TGI (HCT-15 colon) | TGI (HOP-62 NSCLC) | TGI (HT29 colon) | TGI (K-562 leukemia) | TGI (KM12 colon) | TGI (LOX IMVI melanoma) | TGI (M14 melanoma) | TGI (MDA-MB-231 breast) | TGI (MDA-MB-435) | TGI (NCI-H226 lung) | TGI (NCI-H23 lung) | TGI (NCI-H460 lung) | TGI (NCI-H522 lung) | TGI (NCI/ADR-RES ovarian) | TGI (OVCAR-4 ovarian) | TGI (OVCAR-5 ovarian) | TGI (OVCAR-8 ovarian) | TGI (PC-3 prostate) | TGI (RPMI-8226 leukemia) | TGI (SF-268 CNS) | TGI (SK-MEL-2 melanoma) | TGI (SK-MEL-28 melanoma) | TGI (SN12C renal) | TGI (SNB-19 CNS) | TGI (SR leukemia) | TGI (SW-620 colon) | TGI (TK-10 renal) | TGI (U251 CNS) | TGI (UACC-257 melanoma) | TGI (UO-31 renal)
> 76.8 µM: TGI (SK-MEL-5 melanoma)
59.9 µM: TGI (SF-295 CNS)
0.973 µM: TGI (RXF 393 renal)
51.1 µM: TGI (COLO 205 colon)
< 0.0203 µM: TGI (A498 renal)
38.4 µM: TGI (BT-549 breast)
active: GI50 (786-0 renal) 0.192 µM | GI50 (BT-549 breast) 0.14 µM | GI50 (HOP-92 NSCLC) < 0.0389 µM | GI50 (RXF 393 renal) 0.0251 µM | GI50 (SNB-75 CNS) 0.0398 µM | GI50 (T-47D breast) 0.315 µM
11.1 µM: TGI (IGROV1 ovarian)
3.64 µM: TGI (SNB-75 CNS)
61.8 µM: TGI (OVCAR-3 ovarian)
23.6 µM: TGI (HS 578T breast)
99 µM: TGI (MCF7 breast)
inactive: GI50 (A549 NSCLC) 7.43 µM | GI50 (ACHN renal) 3.51 µM | GI50 (CAKI-1 renal) 9.44 µM | GI50 (CCRF-CEM leukemia) 27.5 µM | GI50 (COLO 205 colon) 7.09 µM | GI50 (DU-145 prostate) 33.1 µM | GI50 (HCC-2998 colon) 10.4 µM | GI50 (HCT-116 colon) 10.2 µM | GI50 (HCT-15 colon) 14.9 µM | GI50 (HL-60(TB) leukemia) 2.17 µM | GI50 (HOP-62 NSCLC) 7.13 µM | GI50 (HS 578T breast) 0.693 µM | GI50 (HT29 colon) 4.04 µM | GI50 (IGROV1 ovarian) 0.73 µM | GI50 (K-562 leukemia) 67.2 µM | GI50 (KM12 colon) > 46.1 µM | GI50 (LOX IMVI melanoma) 8.72 µM | GI50 (M14 melanoma) 24.3 µM | GI50 (MALME-3M melanoma) 7.12 µM | GI50 (MCF7 breast) 0.894 µM | GI50 (MDA-MB-231 breast) 24.7 µM | GI50 (MDA-MB-435) 8.17 µM | GI50 (MOLT-4 leukemia) 2.06 µM | GI50 (NCI-H226 lung) > 88.2 µM | GI50 (NCI-H23 lung) > 87 µM | GI50 (NCI-H460 lung) 5.61 µM | GI50 (NCI-H522 lung) 20.8 µM | GI50 (NCI/ADR-RES ovarian) > 83.9 µM | GI50 (OVCAR-3 ovarian) 1.25 µM | GI50 (OVCAR-4 ovarian) 26.1 µM | GI50 (OVCAR-5 ovarian) 4.16 µM | GI50 (OVCAR-8 ovarian) 25.5 µM | GI50 (PC-3 prostate) 0.586 µM | GI50 (RPMI-8226 leukemia) 36.7 µM | GI50 (SF-268 CNS) 22.4 µM | GI50 (SF-295 CNS) 1.23 µM | GI50 (SF-539 CNS) 3.58 µM | GI50 (SK-MEL-2 melanoma) 25.8 µM | GI50 (SK-MEL-28 melanoma) 2.5 µM | GI50 (SK-MEL-5 melanoma) 22.1 µM | GI50 (SK-OV-3 ovarian) 2.18 µM | GI50 (SN12C renal) 7.14 µM | GI50 (SNB-19 CNS) 10.7 µM | GI50 (SR leukemia) 21.9 µM | GI50 (SW-620 colon) 25.1 µM | GI50 (TK-10 renal) 2.64 µM | GI50 (U251 CNS) 8.58 µM | GI50 (UACC-257 melanoma) 2.6 µM | GI50 (UACC-62 melanoma) 1.13 µM | GI50 (UO-31 renal) 2.38 µM
> 84.9 µM: TGI (MALME-3M melanoma)
> 57.6 µM: TGI (HL-60(TB) leukemia)
